Reference: patent US20190119348A1, “PARATHYROID HORMONE RECEPTOR 1 ANTAGONIST AND INVERSE AGONIST POLYPEPTIDES AND METHODS OF THEIR USE” (The General Hospital Corporation, priority 2016, published 2019)
Residue numbers refer to the chain shown, from its start. Where a SMILES comes first, the peptide text is derived from it. [ ]: non-standard residue; d: D form. Nle = CCCC[C@H](N)C(=O)O

How the values were obtained:
human PTHR1-H223R = target: T1, human PTHR1-H223R (Homo sapiens, UniProt Q03431, H223R); experiment: Inverse agonism on basal cAMP signaling in GHR-10 cells; format: cell-based; details: for inverse agonist properties on constitutively active PTHR1-H223R (basal cAMP): GHR-10 cells (HEK293/GloSensor); for Reduction of basal cAMP, % vehicle, After ligand washout / Reduction of basal cAMP, % vehicle, Ligand @ −6M: GHR-10 cells, from AUC, representative experiment; for Reduction of basal cAMP, % vehicle, After ligand washout: 26 minutes after washout of unbound ligand; for Reduction of basal cAMP, % vehicle, Ligand @ −6M: peptide 1×10^−6 M for 24 minutes
T1 construct: expressed in transfected cells; host or cells: GHR-10 (HEK-293 stably expressing GloSensor and PTHR1-H223R)
T1 sequence (Q03431 27-593 H223R): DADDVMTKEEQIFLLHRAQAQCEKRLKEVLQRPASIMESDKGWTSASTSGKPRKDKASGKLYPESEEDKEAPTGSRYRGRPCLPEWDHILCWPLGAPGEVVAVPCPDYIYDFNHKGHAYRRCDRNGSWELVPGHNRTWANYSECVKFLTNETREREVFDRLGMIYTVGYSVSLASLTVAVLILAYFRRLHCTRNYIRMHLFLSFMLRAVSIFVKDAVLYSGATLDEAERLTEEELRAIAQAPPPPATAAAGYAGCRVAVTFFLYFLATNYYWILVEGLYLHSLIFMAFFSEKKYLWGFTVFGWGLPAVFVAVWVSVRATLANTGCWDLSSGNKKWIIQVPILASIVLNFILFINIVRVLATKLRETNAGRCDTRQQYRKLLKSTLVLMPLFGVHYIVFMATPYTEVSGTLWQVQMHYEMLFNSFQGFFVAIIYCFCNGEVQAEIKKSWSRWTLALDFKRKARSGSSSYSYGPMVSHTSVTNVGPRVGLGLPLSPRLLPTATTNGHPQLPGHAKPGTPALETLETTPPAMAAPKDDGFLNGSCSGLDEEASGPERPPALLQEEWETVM
Description: (§1) cAMP signaling was assessed in the HEK293-derived or SaOS2-derived cell lines stably expressing the luciferase-based GloSensor™ cAMP reporter (Hattersley et al., Paper presented at: Novel Signaling Mechanisms and Bone Cell Biology 2014; Binkowski et al., Methods in molecular biology. 756:263-271). HEK-293 cells were further transfected to stably express the hPTHR1, hPTHR1-H223R, or hPTHR1-T410P. The cells were seeded into 96-well white plates and were assayed 24 to 48 hours post-confluency. Assays were performed at room temperature in CO2-independent culture media (Life Technologies, Corp., Carlsbad, Calif.) containing 0.1% BSA (CIDB). The cells were pre-loaded with luciferin (0.5 mM in CIDB) for 15 minutes, then PTH peptides were added at varying concentrations. cAMP-dependent luminescence was measured at two-minute intervals using a PerkinElmer Envision plate reader. The time at which maximum luminescence (cps) observed with agonist alone, typically at 10-20 minutes after agonist addition, was used to obtain data from wells containing antagonist with or without agonist, to thus generate antagonist ligand dose-response curves. The resulting cps values were then plotted against ligand concentration using GraphPad Prism 7.0 software and a four-parameter logistics curve fitting equation, which yielded parameters of inhibitory potency (pIC50).
(§2) These experiments were performed in HEK-293 cells stably transfected to express the GloSensor™ cAMP reporter along with a constitutively active mutant human PTHR1. The HEK-293 cells stably expressing GloSensor™ cAMP reporter along with a constitutively active mutant human PTHR1-H223R are GHR-10 cells. The HEK-293 cells stably expressing GloSensor™ cAMP reporter along with a constitutively active mutant human PTHR1-T410P are GTP-4 cells. The HEK-293 cells stably expressing GloSensor™ cAMP reporter along with a WT-PTHR1 are GP-2.3 cells. GP-2.3 cells were used as control. […] Effects on basal cAMP signaling over time were assessed during periods of direct ligand addition (FIGS. 15A-15F). The measurements were performed by recording GloSensor™ luminescence as counts per second (cps) using a PerkinElmer Envision plate reader. The data are illustrated in FIGS. 15A-15F. Data are from triplicate wells (means±SEM) of a single experiment representative of two others.
Persistence of the antagonist/inverse agonist effects (prolonged action) as follows. Effects of eight peptides on basal and PTH(1-34)-stimulated cAMP signaling by PTHR-H223R were assessed in GHR-10 cells (HEK-293-derived cells stably expressing glosensor cAMP reporter and PTHR1-H223R). Time courses of changes in cAMP levels were recorded in three consecutive phases:
1) after initial addition of a candidate antagonist/inverse agonist (1×10^−6 M-1×10^−9 M) to cells pre-loaded for […] with luciferin (left column);
2) after removal of unbound inverse agonist by extensive wash-out with buffer and replenishment with fresh luciferin-containing buffer (middle column); and
Control wells were treated with vehicle. GloSensor™ luminescence, as counts per second (cps), was recorded using a PerkinElmer Envision plate reader. Data are from duplicate wells (means±SEM) of a single experiment representative of two others. The results are illustrated in Table 7 and in FIGS. 16A-16C, 17A-17C, 18A-18C, 19A-19C, 20A-20C, 21A-21C, 22A-22C, and 23A-23C.
GHR10 cells were treated with vehicle or vehicle containing the indicated peptide for 24 minutes and cAMP-dependent luminescence was recorded at two-minute intervals. The cells were then washed to remove unbound ligand and media containing fresh luciferin was added, and cAMP luminescence was recorded for another 26 minutes. Percentage reduction was calculated from the area-under-the-curve (AUC) values derived from the time course plots using the equation: […]

human PTHR1-T410P = target: T2, human PTHR1-T410P (Homo sapiens, UniProt Q03431, T410P); experiment: Inverse agonism on basal cAMP signaling in GTP-4 cells; format: cell-based; details: GTP-4 cells (HEK293/GloSensor)
T2 construct: expressed in transfected cells; host or cells: GTP-4 (HEK-293 stably expressing GloSensor and PTHR1-T410P)
T2 sequence (Q03431 27-593 T410P): T1 sequence (Q03431 27-593 H223R) with R197H, T384P
Description: as §1
as §2, with “cells.” for “cells. The HEK-293 cells stably expressing GloSensor™ cAMP reporter along with a WT-PTHR1 are GP-2.3 cells. GP-2.3 cells were used as control.”, “The data are illustrated in FIGS. 15A-15F. Data are from triplicate wells (means±SEM) of a single experiment representative of two others.” left out

inverse agonist properties on constitutively active PTHR1-H223R (basal cAMP) (human PTHR1-H223R) | Reduction of basal cAMP, % vehicle, After ligand washout (human PTHR1-H223R) | Reduction of basal cAMP, % vehicle, Ligand @ −6M (human PTHR1-H223R) | inverse agonist properties on constitutively active PTHR1-T410P (basal cAMP) (human PTHR1-T410P) | Structure (SMILES)
exhibited inverse agonist properties | 30 % vehicle | 41 % vehicle | exhibited inverse agonist properties | CC[C@H](C)[C@H](N)C(=O)N[C@@H](CCC(N)=O)C(=O)N[C@@H](CC(C)C)C(=O)N[C@@H](CCSC)C(=O)N[C@@H](Cc1c[nH]cn1)C(=O)N[C@@H](CCC(N)=O)C(=O)N[C@@H](CCCNC(=N)N)C(=O)N[C@H](Cc1c[nH]c2ccccc12)C(=O)N[C@@H](CCCCN)C(=O)N[C@@H](Cc1c[nH]c2ccccc12)C(=O)N[C@H](C(=O)N[C@@H](CCC(N)=O)C(=O)N[C@@H](CC(=O)O)C(=O)N[C@@H](C)C(=O)N[C@@H](CCCNC(=N)N)C(=O)N[C@@H](CCCNC(=N)N)C(=O)N[C@@H](CCCNC(=N)N)C(=O)N[C@@H](C)C(=O)N[C@@H](Cc1c[nH]c2ccccc12)C(=O)N[C@@H](CC(C)C)C(=O)N[C@@H](Cc1c[nH]cn1)C(=O)N[C@@H](CCCCN)C(=O)N[C@@H](CC(C)C)C(=O)N[C@H](C(=O)N[C@@H](C)C(=O)N[C@@H](CCC(=O)O)C(=O)N[C@H](C(=O)N[C@@H](Cc1c[nH]cn1)C(=O)N[C@H](C(=O)N[C@@H](C)C(=O)N[C@@H](CCC(=O)O)C(=O)N[C@H](C(N)=O)[C@@H](C)CC)[C@@H](C)O)[C@@H](C)CC)[C@@H](C)CC)[C@@H](C)CC [compound 1949, dW12, W23-LA-PTH(5-36)] (H-IQLMHQR[dW]KWIQDARRRAWLHKLIAEIHTAEI-NH2; N-terminus assumed)
inverse agonist response | 39 % vehicle | 50 % vehicle | inverse agonist response | CC[C@H](C)[C@H](NC(=O)[C@H](CCC(=O)O)NC(=O)[C@H](C)NC(=O)[C@@H](NC(=O)[C@H](Cc1c[nH]cn1)NC(=O)[C@@H](NC(=O)[C@H](CCC(=O)O)NC(=O)[C@H](C)NC(=O)[C@@H](NC(=O)[C@H](CC(C)C)NC(=O)[C@H](CCCCN)NC(=O)[C@H](Cc1c[nH]cn1)NC(=O)[C@H](CC(C)C)NC(=O)[C@H](Cc1c[nH]c2ccccc12)NC(=O)[C@H](C)NC(=O)[C@H](CCCNC(=N)N)NC(=O)[C@H](CCCNC(=N)N)NC(=O)[C@H](CCCNC(=N)N)NC(=O)[C@H](C)NC(=O)[C@H](CC(=O)O)NC(=O)[C@H](CCC(N)=O)NC(=O)[C@@H](NC(=O)[C@H](Cc1c[nH]c2ccccc12)NC(=O)[C@H](CCCCN)NC(=O)[C@@H](Cc1c[nH]c2ccccc12)NC(=O)[C@H](CCCNC(=N)N)NC(=O)[C@H](CCC(N)=O)NC(=O)[C@H](Cc1c[nH]cn1)NC(=O)[C@H](CCSC)NC(=O)[C@@H](N)CC(C)C)[C@@H](C)CC)[C@@H](C)CC)[C@@H](C)CC)[C@@H](C)O)C(N)=O [compound 1990, dW12, W23-LA-PTH(7-36)-1990] (H-LMHQR[dW]KWIQDARRRAWLHKLIAEIHTAEI-NH2; N-terminus assumed)
inverse agonist response | 40 % vehicle | 51 % vehicle | inverse agonist response | CCCC[C@H](NC(=O)[C@@H](N)CC(C)C)C(=O)N[C@@H](Cc1c[nH]cn1)C(=O)N[C@@H](CCC(N)=O)C(=O)N[C@@H](CCCNC(=N)N)C(=O)N[C@H](Cc1c[nH]c2ccccc12)C(=O)N[C@@H](CCCCN)C(=O)N[C@@H](Cc1c[nH]c2ccccc12)C(=O)N[C@H](C(=O)N[C@@H](CCC(N)=O)C(=O)N[C@@H](CC(=O)O)C(=O)N[C@@H](C)C(=O)N[C@@H](CCCNC(=N)N)C(=O)N[C@@H](CCCNC(=N)N)C(=O)N[C@@H](CCCNC(=N)N)C(=O)N[C@@H](C)C(=O)N[C@@H](Cc1c[nH]c2ccccc12)C(=O)N[C@@H](CC(C)C)C(=O)N[C@@H](Cc1c[nH]cn1)C(=O)N[C@@H](CCCCN)C(=O)N[C@@H](CC(C)C)C(=O)N[C@H](C(=O)N[C@@H](C)C(=O)N[C@@H](CCC(=O)O)C(=O)N[C@H](C(=O)N[C@@H](Cc1c[nH]cn1)C(=O)N[C@H](C(=O)N[C@@H](C)C(=O)N[C@@H](CCC(=O)O)C(=O)N[C@H](C(N)=O)[C@@H](C)CC)[C@@H](C)O)[C@@H](C)CC)[C@@H](C)CC)[C@@H](C)CC [compound 1992, Nle8, dW12, W23-LA-PTH(7-36)-1992] (H-L[Nle]HQR[dW]KWIQDARRRAWLHKLIAEIHTAEI-NH2; N-terminus assumed)
